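Step 1: Grow cells in 96-well plates. Step 2: Expose to compound for 48 hours at 5 concentrations. Step 3: Interpolate endpoints linearly; if unreached, use highest concentration. At the GI50, growth is halved.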 Active and inactive are the calls of the source. Cut-off read from the data, not from the text of the source: active = GI50 up to about 1.1 µM and inactive = higher.
How the values were obtained:
Assay in all cases: NCI tumour cell line growth inhibition, 48 h
786-0 = system: 786-0
A498 = system: A498
A549 = system: A549
ACHN = system: ACHN
CAKI-1 = system: CAKI-1
CCRF-CEM = system: CCRF-CEM
COLO 205 = system: COLO 205
DU-145 = system: DU-145
EKVX = system: EKVX
HCC 2998 = system: HCC 2998
HCT-116 = system: HCT-116
HCT-15 = system: HCT-15
HL-60 = system: HL-60
HOP-62 = system: HOP-62
HOP-92 = system: HOP-92
HT-29 = system: HT-29
Hs-578T = system: Hs-578T
IGROV-1 = system: IGROV-1
K562 = system: K562
KM12 = system: KM12
LOX IMVI = system: LOX IMVI
M14 = system: M14
MCF7 = system: MCF7
MDA-MB-231 = system: MDA-MB-231
MDA-MB-435 = system: MDA-MB-435
MDA-N = system: MDA-N
MOLT-4 = system: MOLT-4
Malme-3M = system: Malme-3M
NCI-H226 = system: NCI-H226
NCI-H23 = system: NCI-H23
NCI-H460 = system: NCI-H460
NCI-H522 = system: NCI-H522
NCI/ADR-RES = system: NCI/ADR-RES
OVCAR-3 = system: OVCAR-3
OVCAR-4 = system: OVCAR-4
OVCAR-5 = system: OVCAR-5
OVCAR-8 = system: OVCAR-8
PC-3 = system: PC-3
RPMI-8226 = system: RPMI-8226
RXF 393 = system: RXF 393
SF-268 = system: SF-268
SF-295 = system: SF-295
SF-539 = system: SF-539
SK-MEL-28 = system: SK-MEL-28
SK-MEL-2 = system: SK-MEL-2
SK-MEL-5 = system: SK-MEL-5
SK-OV-3 = system: SK-OV-3
SN12C = system: SN12C
SNB-19 = system: SNB-19
SW-620 = system: SW-620
T47D = system: T47D
TK-10 = system: TK-10
U-251 = system: U-251
UACC-257 = system: UACC-257
UACC-62 = system: UACC-62
UO-31 = system: UO-31
SNB-75 = system: SNB-75
SR = system: SR

For `CSC(SC)=C(C(=O)c1ccc(Cl)cc1)n1c(=O)sc2cc(Br)ccc21`, the GI50 (786-0) was > 100 µM (inactive), the GI50 (A498) was > 100 µM (inactive) and the GI50 (A549) was > 100 µM (inactive). For the same molecule, the GI50 (ACHN) was > 100 µM (inactive), the GI50 (CAKI-1) was 23.1 µM (inactive) and the GI50 (CCRF-CEM) was 69.2 µM (inactive). The GI50 (COLO 205) was 66.4 µM (inactive), the GI50 (DU-145) was > 100 µM (inactive) and the GI50 (EKVX) was > 100 µM (inactive). The GI50 (HCC 2998) was > 100 µM (inactive), the GI50 (HCT-116) was 51.3 µM (inactive) and the GI50 (HCT-15) was > 100 µM. The GI50 (HL-60) was > 100 µM (inactive), the GI50 (HOP-62) was > 100 µM (inactive) and the GI50 (HOP-92) was 31.5 µM (inactive). The GI50 (HT-29) was 98.6 µM (inactive), the GI50 (Hs-578T) was > 100 µM (inactive) and the GI50 (IGROV-1) was > 100 µM (inactive). For the same molecule, the GI50 (K562) was 36.5 µM (inactive), the GI50 (KM12) was > 100 µM (inactive) and the GI50 (LOX IMVI) was > 100 µM (inactive). For the same molecule, the GI50 (M14) was > 100 µM (inactive), the GI50 (MCF7) was > 100 µM (inactive) and the GI50 (MDA-MB-231) was > 100 µM (inactive). For the same molecule, the GI50 (MDA-MB-435) was > 100 µM (inactive), the GI50 (MDA-N) was > 100 µM (inactive) and the GI50 (MOLT-4) was 18.7 µM (inactive). For the same molecule, the GI50 (Malme-3M) was > 100 µM (inactive), the GI50 (NCI-H226) was > 100 µM (inactive) and the GI50 (NCI-H23) was > 100 µM (inactive). The GI50 (NCI-H460) was > 100 µM (inactive), the GI50 (NCI-H522) was > 100 µM (inactive) and the GI50 (NCI/ADR-RES) was > 100 µM (inactive). The GI50 (OVCAR-3) was > 100 µM (inactive), the GI50 (OVCAR-4) was 50.8 µM (inactive) and the GI50 (OVCAR-5) was > 100 µM (inactive). For the same molecule, the GI50 (OVCAR-8) was > 100 µM (inactive), the GI50 (PC-3) was > 100 µM (inactive) and the GI50 (RPMI-8226) was > 100 µM (inactive). For the same molecule, the GI50 (RXF 393) was > 100 µM (inactive), the GI50 (SF-268) was > 100 µM (inactive) and the GI50 (SF-295) was > 100 µM (inactive). For the same molecule, the GI50 (SF-539) was > 100 µM (inactive), the GI50 (SK-MEL-28) was > 100 µM (inactive) and the GI50 (SK-MEL-2) was > 100 µM (inactive). For the same molecule, the GI50 (SK-MEL-5) was > 100 µM (inactive), the GI50 (SK-OV-3) was > 100 µM (inactive) and the GI50 (SN12C) was > 100 µM (inactive). The GI50 (SNB-19) was > 100 µM (inactive), the GI50 (SW-620) was > 100 µM (inactive) and the GI50 (T47D) was > 100 µM (inactive). For the same molecule, the GI50 (TK-10) was > 100 µM (inactive), the GI50 (U-251) was > 100 µM (inactive) and the GI50 (UACC-257) was > 100 µM (inactive). The GI50 (UACC-62) was > 100 µM (inactive) and the GI50 (UO-31) was > 100 µM (inactive).

For `Nc1nc(O)nc2sc3c(c12)CCCC3`, the GI50 (786-0) was > 100 µM (inactive), the GI50 (A549) was 84.3 µM (inactive) and the GI50 (ACHN) was > 100 µM (inactive). For the same molecule, the GI50 (CCRF-CEM) was 41.3 µM (inactive), the GI50 (COLO 205) was 39.5 µM (inactive) and the GI50 (DU-145) was > 100 µM (inactive). For the same molecule, the GI50 (EKVX) was 7.48 µM (inactive), the GI50 (HCC 2998) was 82 µM (inactive) and the GI50 (HCT-116) was 57 µM (inactive). The GI50 (HCT-15) was > 100 µM, the GI50 (HL-60) was 88.5 µM (inactive) and the GI50 (HOP-62) was 98.4 µM (inactive). The GI50 (HOP-92) was > 100 µM (inactive), the GI50 (HT-29) was 68.2 µM (inactive) and the GI50 (Hs-578T) was 23.6 µM (inactive). For the same molecule, the GI50 (IGROV-1) was 87.7 µM (inactive), the GI50 (K562) was 61.4 µM (inactive) and the GI50 (KM12) was 33.3 µM (inactive). For the same molecule, the GI50 (M14) was 41.1 µM (inactive), the GI50 (MCF7) was 44.5 µM (inactive) and the GI50 (MDA-MB-231) was 98.4 µM (inactive). The GI50 (MOLT-4) was 99.3 µM (inactive), the GI50 (Malme-3M) was 37.8 µM (inactive) and the GI50 (NCI-H226) was 4.57 µM (inactive). For the same molecule, the GI50 (NCI-H23) was > 100 µM (inactive), the GI50 (NCI-H460) was 56.4 µM (inactive) and the GI50 (NCI-H522) was 46.6 µM (inactive). The GI50 (NCI/ADR-RES) was > 100 µM (inactive), the GI50 (OVCAR-4) was 38.5 µM (inactive) and the GI50 (OVCAR-5) was > 100 µM (inactive). The GI50 (OVCAR-8) was > 100 µM (inactive), the GI50 (PC-3) was > 100 µM (inactive) and the GI50 (RPMI-8226) was 38.5 µM (inactive). For the same molecule, the GI50 (RXF 393) was > 100 µM (inactive), the GI50 (SF-268) was 90.4 µM (inactive) and the GI50 (SF-539) was 42.8 µM (inactive). For the same molecule, the GI50 (SK-MEL-28) was 25.2 µM (inactive), the GI50 (SK-MEL-2) was > 100 µM (inactive) and the GI50 (SK-MEL-5) was > 100 µM (inactive). The GI50 (SK-OV-3) was > 100 µM (inactive), the GI50 (SN12C) was 73.3 µM (inactive) and the GI50 (SNB-19) was 55.8 µM (inactive). The GI50 (SNB-75) was 19.7 µM (inactive), the GI50 (SR) was 51.5 µM (inactive) and the GI50 (SW-620) was > 100 µM (inactive). For the same molecule, the GI50 (T47D) was 64.9 µM (inactive), the GI50 (TK-10) was 92 µM (inactive) and the GI50 (U-251) was > 100 µM (inactive). For the same molecule, the GI50 (UACC-257) was 63.1 µM (inactive), the GI50 (UACC-62) was 32.1 µM (inactive) and the GI50 (UO-31) was 81.7 µM (inactive).

With `CN(C)CCNC(=O)Cn1ccc(=O)c2cc([N+](=O)[O-])ccc21` the GI50 (786-0) was > 100 µM (inactive), the GI50 (A498) was > 100 µM (inactive) and the GI50 (A549) was > 100 µM (inactive). For the same molecule, the GI50 (ACHN) was > 100 µM (inactive), the GI50 (CAKI-1) was > 100 µM (inactive) and the GI50 (CCRF-CEM) was > 100 µM (inactive). The GI50 (COLO 205) was > 100 µM (inactive), the GI50 (DU-145) was > 100 µM (inactive) and the GI50 (EKVX) was > 100 µM (inactive). The GI50 (HCC 2998) was > 100 µM (inactive), the GI50 (HCT-116) was > 100 µM (inactive) and the GI50 (HCT-15) was > 100 µM. For the same molecule, the GI50 (HL-60) was > 100 µM (inactive), the GI50 (HOP-62) was > 100 µM (inactive) and the GI50 (HOP-92) was > 100 µM (inactive). The GI50 (HT-29) was > 100 µM (inactive), the GI50 (Hs-578T) was > 100 µM (inactive) and the GI50 (IGROV-1) was > 100 µM (inactive). The GI50 (K562) was > 100 µM (inactive), the GI50 (KM12) was > 100 µM (inactive) and the GI50 (LOX IMVI) was > 100 µM (inactive). The GI50 (M14) was > 100 µM (inactive), the GI50 (MCF7) was > 100 µM (inactive) and the GI50 (MDA-MB-435) was > 100 µM (inactive). The GI50 (MDA-N) was > 100 µM (inactive), the GI50 (MOLT-4) was > 100 µM (inactive) and the GI50 (Malme-3M) was > 100 µM (inactive). For the same molecule, the GI50 (NCI-H226) was > 100 µM (inactive), the GI50 (NCI-H23) was > 100 µM (inactive) and the GI50 (NCI-H460) was > 100 µM (inactive). For the same molecule, the GI50 (NCI-H522) was > 100 µM (inactive), the GI50 (NCI/ADR-RES) was > 100 µM (inactive) and the GI50 (OVCAR-3) was > 100 µM (inactive). For the same molecule, the GI50 (OVCAR-5) was > 100 µM (inactive), the GI50 (PC-3) was > 100 µM (inactive) and the GI50 (RPMI-8226) was > 100 µM (inactive). For the same molecule, the GI50 (RXF 393) was > 100 µM (inactive), the GI50 (SF-268) was > 100 µM (inactive) and the GI50 (SF-295) was > 100 µM (inactive). For the same molecule, the GI50 (SF-539) was > 100 µM (inactive), the GI50 (SK-MEL-28) was > 100 µM (inactive) and the GI50 (SK-MEL-2) was > 100 µM (inactive). The GI50 (SK-MEL-5) was > 100 µM (inactive), the GI50 (SK-OV-3) was > 100 µM (inactive) and the GI50 (SN12C) was > 100 µM (inactive). For the same molecule, the GI50 (SNB-19) was > 100 µM (inactive), the GI50 (SR) was > 100 µM (inactive) and the GI50 (SW-620) was > 100 µM (inactive). The GI50 (T47D) was > 100 µM (inactive), the GI50 (TK-10) was > 100 µM (inactive) and the GI50 (U-251) was > 100 µM (inactive). For the same molecule, the GI50 (UACC-257) was > 100 µM (inactive), the GI50 (UACC-62) was > 100 µM (inactive) and the GI50 (UO-31) was > 100 µM (inactive).
